Test results taken from ChEMBL document CHEMBL3596095, “Design, synthesis, and biological activity of phenyl-pyrazole derivatives as BCR-ABL kinase inhibitors” (Bioorg Med Chem, 2015).

What was measured:
K562 = assay: cells; format: functional, cell-based; details: Homo sapiens, K562, 48 h
Description: Antitumor activity against human K562 cells assessed as inhibition of cell growth after 48 hrs by MTT assay

Bcr/Abl fusion protein = Bcr/Abl fusion protein (Homo sapiens, UniProt P00519); assay: Inhibition of BCR-ABL1 (unknown origin) assessed as ATP remaining by Kinase-Glo luminescent kinase assay
Bcr/Abl fusion protein, sequence (P00519 whole entry, the tested form may be a part): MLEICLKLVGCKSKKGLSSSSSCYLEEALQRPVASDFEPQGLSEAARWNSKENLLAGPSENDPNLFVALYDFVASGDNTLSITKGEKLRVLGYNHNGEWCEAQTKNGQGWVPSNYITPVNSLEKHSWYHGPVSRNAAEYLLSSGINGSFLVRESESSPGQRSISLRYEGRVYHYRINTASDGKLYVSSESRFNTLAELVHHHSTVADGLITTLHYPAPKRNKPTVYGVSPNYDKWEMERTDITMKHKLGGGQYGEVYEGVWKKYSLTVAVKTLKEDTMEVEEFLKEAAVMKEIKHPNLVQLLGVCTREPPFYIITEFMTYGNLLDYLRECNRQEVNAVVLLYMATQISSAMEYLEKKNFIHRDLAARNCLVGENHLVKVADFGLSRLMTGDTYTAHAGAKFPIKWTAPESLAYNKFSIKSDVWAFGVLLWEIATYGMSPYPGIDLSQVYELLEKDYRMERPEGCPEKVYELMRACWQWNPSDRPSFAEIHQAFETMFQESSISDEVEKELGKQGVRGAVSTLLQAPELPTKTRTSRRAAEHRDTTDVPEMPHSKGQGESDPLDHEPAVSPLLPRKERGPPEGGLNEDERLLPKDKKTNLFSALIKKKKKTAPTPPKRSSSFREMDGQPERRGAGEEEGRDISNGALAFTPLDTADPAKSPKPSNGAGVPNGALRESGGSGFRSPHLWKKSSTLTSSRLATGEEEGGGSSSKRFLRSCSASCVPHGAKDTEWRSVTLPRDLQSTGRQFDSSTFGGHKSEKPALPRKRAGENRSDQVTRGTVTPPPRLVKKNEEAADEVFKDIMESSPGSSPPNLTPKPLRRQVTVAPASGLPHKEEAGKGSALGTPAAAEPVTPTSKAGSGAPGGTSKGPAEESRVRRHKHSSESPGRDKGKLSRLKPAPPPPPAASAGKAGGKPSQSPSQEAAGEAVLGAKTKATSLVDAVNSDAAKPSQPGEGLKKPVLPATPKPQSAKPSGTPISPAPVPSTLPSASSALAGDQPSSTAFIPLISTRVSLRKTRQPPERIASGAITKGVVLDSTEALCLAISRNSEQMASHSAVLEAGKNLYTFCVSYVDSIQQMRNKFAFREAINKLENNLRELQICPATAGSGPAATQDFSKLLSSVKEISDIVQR
Bcr/Abl fusion protein, sequence (P11274 whole entry, further chain, the tested form may be a part): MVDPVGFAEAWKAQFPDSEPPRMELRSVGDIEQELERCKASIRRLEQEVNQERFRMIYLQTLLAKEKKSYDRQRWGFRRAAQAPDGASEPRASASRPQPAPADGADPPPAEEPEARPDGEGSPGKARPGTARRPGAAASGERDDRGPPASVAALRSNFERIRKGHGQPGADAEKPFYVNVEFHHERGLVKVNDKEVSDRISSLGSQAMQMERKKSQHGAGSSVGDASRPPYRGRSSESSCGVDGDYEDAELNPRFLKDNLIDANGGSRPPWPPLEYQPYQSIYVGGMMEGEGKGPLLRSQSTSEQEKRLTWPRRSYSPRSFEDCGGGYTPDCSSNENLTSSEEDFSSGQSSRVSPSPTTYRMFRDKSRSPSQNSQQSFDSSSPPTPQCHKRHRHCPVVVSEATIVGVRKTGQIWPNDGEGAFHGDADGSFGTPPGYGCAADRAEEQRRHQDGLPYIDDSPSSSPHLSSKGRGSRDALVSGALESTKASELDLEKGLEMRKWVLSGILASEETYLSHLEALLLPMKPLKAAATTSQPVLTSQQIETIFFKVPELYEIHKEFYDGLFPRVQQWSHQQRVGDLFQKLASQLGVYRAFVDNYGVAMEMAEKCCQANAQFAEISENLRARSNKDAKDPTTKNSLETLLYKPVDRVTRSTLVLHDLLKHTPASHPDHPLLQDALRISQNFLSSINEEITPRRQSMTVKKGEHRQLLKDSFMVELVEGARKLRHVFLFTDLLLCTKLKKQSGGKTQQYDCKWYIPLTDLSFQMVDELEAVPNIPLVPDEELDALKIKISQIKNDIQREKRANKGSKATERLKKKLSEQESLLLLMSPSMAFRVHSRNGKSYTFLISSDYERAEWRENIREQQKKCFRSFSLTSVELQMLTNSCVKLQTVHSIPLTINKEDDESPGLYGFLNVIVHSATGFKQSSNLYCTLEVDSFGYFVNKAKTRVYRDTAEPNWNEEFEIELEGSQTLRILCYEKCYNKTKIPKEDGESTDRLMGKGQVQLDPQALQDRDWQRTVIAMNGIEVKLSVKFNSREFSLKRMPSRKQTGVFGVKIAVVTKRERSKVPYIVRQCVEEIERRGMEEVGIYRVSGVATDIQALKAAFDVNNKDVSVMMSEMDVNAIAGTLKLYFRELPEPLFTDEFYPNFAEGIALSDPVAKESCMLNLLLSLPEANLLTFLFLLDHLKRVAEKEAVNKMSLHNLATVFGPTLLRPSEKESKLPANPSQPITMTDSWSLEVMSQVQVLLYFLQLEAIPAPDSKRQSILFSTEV

SMILES: Cc1ccc(NC(=O)c2cccc(C(F)(F)F)c2)cc1-n1cc(-c2cccnc2)cn1
- IC50 (K562): 0.27 µM
- IC50 (Bcr/Abl fusion protein): 14.2 nM

SMILES: Cc1ccc(NC(=O)c2cccc(Cl)c2)cc1-n1cc(-c2cccnc2)cn1
- IC50 (K562): 1.32 µM
- IC50 (Bcr/Abl fusion protein): 15.9 nM

SMILES: Cc1ccc(NC(=O)c2ccc(F)cc2)cc1-n1cc(-c2cccnc2)cn1
- IC50 (K562): 12.5 µM
- IC50 (Bcr/Abl fusion protein): 214 nM

SMILES: CCc1ccc(C(=O)Nc2ccc(C)c(-n3cc(-c4cccnc4)cn3)c2)cc1
- IC50 (K562): 6.52 µM
- IC50 (Bcr/Abl fusion protein): 41 nM

SMILES: Cc1ccc(NC(=O)c2ccc(C(F)(F)F)cc2)cc1-n1cc(-c2cccnc2)cn1
- IC50 (K562): 0.76 µM
- IC50 (Bcr/Abl fusion protein): 43.3 nM

SMILES: COc1ccc(C(=O)Nc2ccc(C)c(-n3cc(-c4cccnc4)cn3)c2)cc1
- IC50 (K562): 18.3 µM
- IC50 (Bcr/Abl fusion protein): 46.2 nM

SMILES: Cc1ccc(NC(=O)c2ccc(CN3CCN(C)CC3)cc2)cc1-n1cc(-c2cccnc2)cn1
- IC50 (K562): 1.67 µM
- IC50 (Bcr/Abl fusion protein): 50.6 nM

SMILES: Cc1ccc(NC(=O)c2ccc(CN3CCOCC3)cc2)cc1-n1cc(-c2cccnc2)cn1
- IC50 (K562): 21.5 µM
- IC50 (Bcr/Abl fusion protein): 178 nM

SMILES: Cc1ccc(NC(=O)c2ccc(Cn3ccnc3)cc2)cc1-n1cc(-c2cccnc2)cn1
- IC50 (K562): 136 µM
- IC50 (Bcr/Abl fusion protein): 326 nM

SMILES: CCN(CC)Cc1ccc(C(=O)Nc2ccc(C)c(-n3cc(-c4cccnc4)cn3)c2)cc1
- IC50 (K562): 3.26 µM
- IC50 (Bcr/Abl fusion protein): 129 nM

SMILES: Cc1ccc(NC(=O)c2ccc(CN3CCCN(C)CC3)cc2)cc1-n1cc(-c2cccnc2)cn1
- IC50 (K562): 8.65 µM
- IC50 (Bcr/Abl fusion protein): 26.6 nM

SMILES: Cc1ccc(NC(=O)c2ccc(CN3CCCC3)cc2)cc1-n1cc(-c2cccnc2)cn1
- IC50 (K562): 2.74 µM
- IC50 (Bcr/Abl fusion protein): 117 nM

SMILES: CCN1CCN(Cc2ccc(C(=O)Nc3ccc(C)c(-n4cc(-c5cccnc5)cn4)c3)cc2)CC1
- IC50 (K562): 2.33 µM
- IC50 (Bcr/Abl fusion protein): 16.9 nM

SMILES: Cc1ccc(NC(=O)c2ccc(CN3CCN(CCO)CC3)cc2)cc1-n1cc(-c2cccnc2)cn1
- IC50 (K562): 98.3 µM
- IC50 (Bcr/Abl fusion protein): 175 nM
